Assays:
[1] = Minimum bactericidal studies, broth macrodilution; format: cell-based
Procedure: Minimum bactericidal studies were performed by broth macrodilution technique as described by NCCLS.

[2] = system: A. baumani MRO 14514; experiment: MIC, Agar Dilution Method, resistant clinical isolate; format: cell-based; details: Pip + 4 μg/mL inhibitor
Procedure: (§1) The novel compounds were tested for the in vitro antibacterial activities by the Agar Dilution Method as specified in documents published by NCCLS, now CLSI, USA. (National Committee for Clinical Laboratory Standards (NCCLS). 2003. Approved standard M7-A6. NCCLS, Villanova, Pa.).
(§2) Tazo was also dissolved in same buffer to get a solution of, e.g., 1 mg/mL. Novel penam derivatives described herein were dissolved in water to get a solution of, e.g., 1 mg/mL.
(§3) The novel compounds and Tazo were also tested individually. The bacterial inoculum was prepared by picking 3 to 5 well-isolated bacterial colonies with the same morphological appearance from an 18-24 h old culture and adjusting the turbidity of the saline suspension to 0.5 McFarland Turbidity Standard equivalent to a bacterial population of 1.5×10^8 colony forming units (CFU) per mL of suspension. The suspension was diluted 1:10 in saline (i.e. 0.5 mL suspension+4.5 mL saline) to get a bacterial population of 1.5×10^7 CFU/mL as inoculum. […] The inoculated petridishes were incubated at 35° C. in an ambient atmosphere for 16-20 h.

[3] = system: A. baumani MRO 14512; experiment: as above; format: cell-based; details: Pip + 4 μg/mL inhibitor
Procedure: as §1, §2, §3

[4] = system: A. baumani MRO 14515; experiment: as above; format: cell-based; details: Pip + 4 μg/mL inhibitor
Procedure: as §1, §2, §3

[5] = system: E. coli MRO 10135; experiment: as above; format: cell-based; details: Pip + 4 μg/mL inhibitor
Procedure: as §1, §2, §3

[6] = system: E. coli MRO 10007; experiment: In vivo efficacy, infected mice; details: Swiss albino mice infected with E. coli MRO 10007; Piperacillin:inhibitor 4:1; 7-day survival
Procedure: (§4) The efficacy studies were performed as described earlier (Kuck et al, 1989, Antimicrob. Agents. Chemother. 33(11): 1964-1969). Briefly, Swiss albino mice, 20+2 g, from in-house breeding facility were challenged by the intraperitoneal injection of bacterial suspensions in 0.5 mL of hog gastric mucin (10 to 100 50% lethal doses). […] All the untreated control animals died within 48 h of infection. In each experiment, in-house Tazo was used as an inhibitor control in four doses. Median (50%) effective dose (ED50) were determined by applying the Reed and Muench's method of the 7-day survival ratios.

[7] = system: K. pneumoniae MRO 11008; experiment: In vivo efficacy, infected mice; details: Swiss albino mice infected with K. pneumoniae MRO 11008; Piperacillin:inhibitor 4:1; 7-day survival
Procedure: as §4

[8] = system: E. coli MRO 10006; experiment: In vivo efficacy, infected mice; details: Swiss albino mice infected with E. coli MRO 10006; Piperacillin:inhibitor 4:1; 7-day survival
Procedure: as §4

[9] = Intravenous pharmacokinetics in mice; format: in vivo, Swiss mice; details: mouse, in vivo, iv
From the text: Blood samples were collected at different time points. These samples were processed and analyzed by HPLC.

[10] = system: K. pneumoniae 11009; experiment: MIC, Agar Dilution Method; format: cell-based; details: strain 11009 (uncharacterized-ESBL clinical strain); inhibitor 1 μg/mL
Procedure: as §1, §2, §3

[11] = system: E. coli 10001; experiment: MIC, Agar Dilution Method; format: cell-based; details: strain 10001 (uncharacterized-ESBL clinical strain); inhibitor 1 μg/mL
Procedure: as §1, §2, §3

[12] = system: K. pneumoniae MRO 11007; experiment: MIC, Agar Dilution Method; format: cell-based; details: strain 11007 (uncharacterized-ESBL clinical strain); inhibitor 1 μg/mL
Procedure: as §1, §2, §3

[13] = system: P. aeruginosa 15019; experiment: MIC, Agar Dilution Method; format: cell-based; details: inhibitor 1 μg/mL
Procedure: as §1, §2, §3

[14] = system: E. coli MRO 10006; experiment: MIC, Agar Dilution Method; format: cell-based; details: strain 10006 (uncharacterized-ESBL clinical strain); inhibitor 1 μg/mL
Procedure: as §1, §2, §3

[15] = system: ESBLs types SHV-3 and SHV-4; details: Bryson and Brogden, 1994; cited from earlier work

## C[C@]1(Cn2ccnn2)[C@H](C(=O)O)N2C(=O)C[C@H]2S1(=O)=O [Tazo]
[1]
  Minimum bactericidal concentration study, Piperacillin in combination with inhibitor: bacteriostatic
[2]
  MIC of Piperacillin in combination with 4 μg/mL inhibitor: 64 µg/mL
[3]
  MIC of Piperacillin in combination with 4 μg/mL inhibitor: 64 µg/mL
[4]
  MIC of Piperacillin in combination with 4 μg/mL inhibitor: 128 µg/mL
[5]
  MIC of Piperacillin in combination with 4 μg/mL inhibitor: >128 µg/mL
[6]
  ED50 of Piperacillin in combination with inhibitor: 58.81 mg/kg b.w.
[7]
  ED50 of Piperacillin in combination with inhibitor: 99.48 mg/kg b.w.
[8]
  ED50 of Piperacillin in combination with inhibitor: 37.22 mg/kg b.w.
[9]
  Elimination half-life: 16.1 min
[10]
  MIC of Piperacillin with Tazo or compounds described herein at 1 μg/mL: 16 µg/mL
[11]
  MIC of Piperacillin with Tazo or compounds described herein at 1 μg/mL: 16 µg/mL
[12]
  MIC of Piperacillin with Tazo or compounds described herein at 1 μg/mL: >128 µg/mL
[13]
  MIC of Piperacillin with Tazo or compounds described herein at 1 μg/mL: 32 µg/mL
[14]
  MIC of Piperacillin with Tazo or compounds described herein at 1 μg/mL: 2 µg/mL
[15]
  activity against ESBLs types SHV-3 and SHV-4: inactive

Source: patent publication US20090093423A2, “NOVEL 2-SUBSTITUTED METHYL PENAM DERIVATIVES” (Orchid Chemicals and Pharmaceuticals Limited, priority 2006, published 2009)
